Drawing on BindingDB's records for PubMed 39369480 (Xuzhou Medical University), this text covers IC50 for 23 compounds.

This series is described as follows: Inhibition of P-gp in human K562/A02 cells over expressing P-gp assessed as reversal of multi-drug resistance by measuring ADR IC50 measured after 72 hrs by CCK-8 assay.
For orientation: IC50 means the concentration that gives 50% inhibition. Take `COc1ccc(C(=O)Nc2ccccc2/N=N/c2ccc(CCN3CCc4cc(OC)c(OC)cc4C3)cc2)cc1OC`: the IC50 was 35 nM.

`COc1cc2c(cc1OC)CN(CCc1ccc(/N=N/c3ccccc3NC(=O)c3ccc(Cl)c(Cl)c3)cc1)CC2`: the IC50 turned out to be 1600 nM.

On to `COc1cc2c(cc1OC)CN(CCc1ccc(/N=N/c3ccccc3NC(=O)c3ccc(C)c(C)c3)cc1)CC2`, for which the IC50 turned out to be 168 nM.

In the case of `COc1cc2c(cc1OC)CN(CCc1ccc(/N=N/c3ccccc3NC(=O)c3ccc(F)c(F)c3)cc1)CC2`, the half-inhibitory concentration (IC50) is 108 nM.

Consider `COc1cc2c(cc1OC)CN(CCc1ccc(/N=N/c3ccccc3NC(=O)c3cc(OC)c(OC)c(OC)c3)cc1)CC2`, for which the IC50 is 1290 nM.

`COc1cc2c(cc1OC)CN(CCc1ccc(/N=N/c3ccccc3NC(=O)c3ccccc3)cc1)CC2`: the IC50 was found to be 70 nM.

With `COc1cccc(C(=O)Nc2ccccc2/N=N/c2ccc(CCN3CCc4cc(OC)c(OC)cc4C3)cc2)c1`, the IC50 was found to be 68 nM.

With `COc1ccc(C(=O)Nc2ccccc2/N=N/c2ccc(CCN3CCc4cc(OC)c(OC)cc4C3)cc2)cc1`, the IC50 came to 88 nM.

As for `COc1cc2c(cc1OC)CN(CCc1ccc(/N=N/c3ccccc3NC(=O)c3ccccc3OC)cc1)CC2`, the IC50 came out at 15 nM.

As for `COc1cc2c(cc1OC)CN(CCc1ccc(/N=N/c3ccccc3NC(=O)c3ccc(C)cc3)cc1)CC2`, the IC50 is 44 nM.

In the case of `COc1cc2c(cc1OC)CN(CCc1ccc(/N=N/c3ccccc3NC(=O)c3ccccc3[N+](=O)[O-])cc1)CC2`, the IC50 is 20 nM.

Consider `COc1cc2c(cc1OC)CN(CCc1ccc(/N=N/c3ccccc3NC(=O)c3ccc([N+](=O)[O-])cc3)cc1)CC2`, for which the IC50 was found to be 120 nM.

Consider `COc1cc2c(cc1OC)CN(CCc1ccc(/N=N/c3ccccc3NC(=O)c3cccc([N+](=O)[O-])c3)cc1)CC2`, for which the IC50 turned out to be 50 nM.

For the compound `COc1cc2c(cc1OC)CN(CCc1ccc(/N=N/c3ccccc3NC(=O)c3ccccc3Cl)cc1)CC2`, the IC50 was determined as 32 nM.

As for `COc1cc2c(cc1OC)CN(CCc1ccc(/N=N/c3ccccc3NC(=O)c3ccc(Cl)cc3)cc1)CC2`, the IC50 is 83 nM.

Consider `COc1cc2c(cc1OC)CN(CCc1ccc(/N=N/c3ccccc3NC(=O)c3cccc(Cl)c3)cc1)CC2`, for which the IC50 is 43 nM.

On to `COc1cc2c(cc1OC)CN(CCc1ccc(/N=N/c3ccccc3NC(=O)c3ccc(C(C)(C)C)cc3)cc1)CC2`, for which the concentration for half-maximal inhibition (IC50) was 105 nM.

As to `COc1cc2c(cc1OC)CN(CCc1ccc(NC(=O)c3ccccc3/N=N/c3ccccc3)cc1)CC2`, the IC50 came out at 92 nM.

Regarding `COc1ccccc1/N=N/c1ccccc1C(=O)Nc1ccc(CCN2CCc3cc(OC)c(OC)cc3C2)cc1`, the IC50 came to 275 nM.

On to `COc1cc2c(cc1OC)CN(CCc1ccc(NC(=O)c3ccccc3/N=N/c3cccc(Cl)c3)cc1)CC2`, for which the IC50 came to 84 nM.

With `COc1cc2c(cc1OC)CN(CCc1ccc(NC(=O)c3ccccc3/N=N/c3ccc(Cl)cc3)cc1)CC2`, the IC50 amounted to 82 nM.

Consider `COc1cc2c(cc1OC)CN(CCc1ccc(NC(=O)c3ccccc3/N=N/c3ccc(C)cc3)cc1)CC2`, for which the IC50 was 68 nM.

Take `COc1ccc(C(=O)Nc2ccccc2C(=O)Nc2ccc(CCN3CCc4cc(OC)c(OC)cc4C3)cc2)cc1OC` [N-(2-(4-(2-(6,7-dimethoxy-3,4-dihydroisoquinolin-2(1H)-yl)ethyl)phenylcarbamoyl)phenyl)-3,4-dimethoxybenzamide]: the IC50 came out at 34 nM.
